Blank lines part the entries; values can stand above or below the compound they belong to.
Assays:
Hxt2 [1] = tested on: T1, Hxt2; assay: initial 2DG uptake ([…] s, zero-trans), bioluminescent 2DG6P assay in HXT2m cells; type: cell-based, Saccharomyces cerevisiae; conditions: 1 mM 2DG, pH 7.4, 25 °C, 30 min preincubation, authors: nonspecific action via membrane lipid, not specific binding
T1 construct: full-length HXT2 expressed from ADH1 promoter on multicopy plasmid Hxt2mnx-pVT (pVT102-U) in S. cerevisiae EBY.S7 (all 18 hexose transporter genes deleted; HXT2m strain)

Hxt2 [2] = tested on: T1, Hxt2; assay: as above; type: cell-based, Saccharomyces cerevisiae; conditions: no alcohol, 0–4 mM 2DG, pH 7.4, 25 °C, zero-trans influx

IC50 (Hxt2 [1]): 3.6 mM
SMILES: CCCCCCCCO [C8, 1-octanol]

IC50 (Hxt2 [1]; noncompetitive): 15.2 mM
SMILES: CCCCCCO [C6, 1-hexanol]

SMILES: OC[C@H]1OC(O)C[C@@H](O)[C@@H]1O (stereo partly drawn) [2DG, 2-deoxyglucose]
Km (Hxt2 [2]): 800 to 900 µM

Source: doi:10.1101/2025.11.20.689647v1, “Alcohols inhibit glucose transporters noncompetitively at a constant membrane concentration according to lipid theory” (biorxiv, 2025)
